IC50 data for 62 molecules are collected here from patent US20240190855A1 (Relay Therapeutics, Inc., priority 2021, published 2024).

SMILES strings stand for the structures.

The assay addresses T1, CDK2/Cyclin E complex (Homo sapiens, UniProt P24941).
T1 construct: purchased Eurofins 14-475
The assay can be described thus: CDK2/Cyclin E fluorescence-based microfluidic mobility shift assay (CDK2 Biochemical Caliper Assay). The conditions noted are these: read-out: Biochemical CDK2/CyclinE Caliper IC50. The method, boiled down: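 Microfluidic mobility-shift readout after EDTA termination measured phosphorylation of fluorescent FL Peptide 18 (1.5 uM final) in a 20 hr room-temperature reaction. Compounds were tested at 11 concentrations (3-fold).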

For the molecule `COCc1nc2ccnc(Nc3cc([C@H]4C[C@@H](OC(=O)NC(C)(C)C)CO4)[nH]n3)c2s1` [Example 692], the IC50 was no more than 0.1 µM. The same measure for `COCc1cc2c(Nc3cc([C@H]4C[C@@H](OC(=O)N[C@H]5CC[C@@H](OC)CC5)CO4)[nH]n3)nccn2n1` [Example 693]: 1 to 100 µM. The same measure for `COCc1cc2c(Nc3cc([C@H]4C[C@@H](OC(=O)NCCC5CCOCC5)CO4)[nH]n3)nccn2n1` [Example 694]: 1 to 100 µM. In the case of `COCc1cc2c(Nc3cc([C@H]4C[C@@H](OC(=O)NC(C)(C)COC)CO4)[nH]n3)nccn2n1` [Example 695] it was no more than 0.1 µM; in that of `COCc1nc2ccnc(Nc3cc([C@H]4C[C@@H](OC(=O)NC5(C)COC5)CO4)[nH]n3)c2s1` [Example 696], no more than 0.1 µM. `COCc1cc2c(Nc3cc([C@H]4C[C@@H](OC(=O)N[C@@H]5C[C@H]5C)CO4)[nH]n3)nccn2n1` [Example 697]: the IC50 was no more than 0.1 µM. The same measure for `COCc1cc2c(Nc3cc([C@H]4C[C@@H](OC(=O)NC5(C#N)CC5)CO4)[nH]n3)nccn2n1` [Example 698]: no more than 0.1 µM; for `CC(C)n1cnnc1O[C@H]1CO[C@@H](c2cc(NC(=O)c3cc(COC(F)(F)F)nn3C)n[nH]2)C1` [Example 699]: no more than 0.1 µM; for `COCc1cc2c(Nc3cc([C@H]4C[C@@H](OC(=O)NC5(C)COC5)CO4)[nH]n3)nccn2n1` [Example 700]: no more than 0.1 µM.

Take `COCc1nc2ccnc(Nc3cc([C@H]4C[C@@H](OC(=O)NC(C)(C)COC)CO4)[nH]n3)c2s1` [Example 701]: the IC50 was no more than 0.1 µM. The same measure for `COCc1cc2c(Nc3cc([C@H]4C[C@@H](OC(=O)NC5(C6CC6)CC5)CO4)[nH]n3)nccn2n1` [Example 702]: no more than 0.1 µM; for `COCc1cc2c(Nc3cc([C@H]4C[C@@H](OC(=O)NC(C)(C)CN5CCOCC5)CO4)[nH]n3)nccn2n1` [Example 703]: 0.25 to 1 µM. Consider `Cn1nc(COC(F)(F)F)cc1C(=O)Nc1cc([C@H]2C[C@@H](OC(=O)NC3(C)CC3)CO2)[nH]n1` [Example 704], for which the IC50 is no more than 0.1 µM. Regarding `CCC1(NC(=O)O[C@H]2CO[C@@H](c3cc(Nc4nccn5nc(COC)cc45)n[nH]3)C2)CC1` [Example 705], the IC50 is no more than 0.1 µM. `CC(C)NC(=O)O[C@H]1CO[C@@H](c2cc(NC(=O)c3cc(COC(F)(F)F)nn3C)n[nH]2)C1` [Example 706]: the IC50 is no more than 0.1 µM. The same measure for `COCc1cc2c(Nc3cc([C@H]4C[C@@H](Oc5nncn5C5(C)CC5)CO4)[nH]n3)nccn2n1` [Example 707]: no more than 0.1 µM; for `COCc1cc2c(Nc3cc([C@H]4C[C@@H](COc5[nH]ncc5C(C)(C)C)C4)[nH]n3)nccn2n1` [Example 708]: no more than 0.1 µM; for `COCc1cc2c(Nc3cc([C@H]4C[C@@H](Oc5nncn5C(C)(C)C)CO4)[nH]n3)nccn2n1` [Example 709]: no more than 0.1 µM. `COCc1cc2c(Nc3cc([C@H]4C[C@@H](OC(=O)NC56CC(F)(C5)C6)CO4)[nH]n3)nccn2n1` [Example 710]: the IC50 was no more than 0.1 µM. In the case of `COCc1cc2c(Nc3cc([C@H]4C[C@@H](OC(=O)N[C@H](C)C5COC5)CO4)[nH]n3)nccn2n1` [Example 711] it was 0.25 to 1 µM; in that of `COCc1cc2c(Nc3cc([C@H]4C[C@@H](OC(=O)NC56CC(Cl)(C5)C6)CO4)[nH]n3)nccn2n1` [Example 712], no more than 0.1 µM; in that of `Cn1nc(COC(F)(F)F)cc1C(=O)Nc1cc([C@H]2C[C@@H](OC(=O)NC(C)(C)C)CO2)[nH]n1` [Example 713], no more than 0.1 µM. Regarding `CC1(NC(=O)O[C@H]2CO[C@@H](c3cc(Nc4nccn5nc(COC(F)F)cc45)n[nH]3)C2)CC1` [Example 714], the IC50 was no more than 0.1 µM. In the case of `COCc1cc2c(Nc3cc([C@@H]4C[C@H](Oc5nncn5C(C)C)CO4)[nH]n3)nccn2n1` [Example 715] it was no more than 0.1 µM; in that of `COCc1cc2c(Nc3cc([C@H]4C[C@@H](OC(=O)NC56CCC(CC5)OC6)CO4)[nH]n3)nccn2n1` [Example 716], no more than 0.1 µM; in that of `COCc1cc2c(Nc3cc([C@H]4C[C@@H](OC(=O)NC(C)(C)C#N)CO4)[nH]n3)nccn2n1` [Example 717], no more than 0.1 µM. Turning to `COCc1cc2c(Nc3cc([C@H]4C[C@@H](COc5[nH]ncc5C(C)C)C4)[nH]n3)nccn2n1` [Example 718], the IC50 is no more than 0.1 µM. For the molecule `COCc1cc2c(Nc3cc([C@@H]4C[C@H](Oc5nncn5C5(C)CC5)CO4)[nH]n3)nccn2n1` [Example 719], the IC50 is no more than 0.1 µM. The same measure for `COCc1cc2c(Nc3cc([C@H]4C[C@@H](OC(=O)N[C@H](C)C(F)(F)F)CO4)[nH]n3)nccn2n1` [Example 720]: no more than 0.1 µM. In the case of `COCc1cc2c(Nc3cc([C@H]4C[C@@H](OC(=O)N[C@@H](C)C(F)(F)F)CO4)[nH]n3)nccn2n1` [Example 721] it was no more than 0.1 µM; in that of `CC1(NC(=O)O[C@H]2CO[C@@H](c3cc(Nc4ncnn5cccc45)n[nH]3)C2)CC1` [Example 722], no more than 0.1 µM; in that of `CC1(NC(=O)O[C@H]2CO[C@@H](c3cc(Nc4ccc5c(n4)C(C)(C)NC5=O)n[nH]3)C2)CC1` [Example 723], no more than 0.1 µM. The same measure for `Cn1ncc2cnc(Nc3cc([C@H]4C[C@@H](OC(=O)NC5(C)CC5)CO4)[nH]n3)cc21` [Example 724]: no more than 0.1 µM; for `CC1(NC(=O)O[C@H]2CO[C@@H](c3cc(Nc4ncnc5sncc45)n[nH]3)C2)CC1` [Example 725]: no more than 0.1 µM; for `COCc1cc2c(Nc3cc([C@H]4C[C@@H](OC(=O)C5CCC5(C)C)CO4)[nH]n3)nccn2n1` (some centres unmarked) [Example 726]: no more than 0.1 µM.

Turning to `CC1(NC(=O)O[C@H]2CO[C@@H](c3cc(Nc4ccn5nccc5n4)n[nH]3)C2)CC1` [Example 727], the IC50 was no more than 0.1 µM. `C#CC1(NC(=O)O[C@H]2CO[C@@H](c3cc(Nc4nccn5nc(COC)cc45)n[nH]3)C2)CC1` [Example 728]: the IC50 is no more than 0.1 µM.

Take `CC1(NC(=O)O[C@H]2CO[C@@H](c3cc(Nc4nccc5[nH]cnc45)n[nH]3)C2)CC1` [Example 730]: the IC50 fell in the range of 0.25 to 1 µM. In the case of `CC1(NC(=O)O[C@H]2CO[C@@H](c3cc(Nc4ccc5nccn5n4)n[nH]3)C2)CC1` [Example 732] it was no more than 0.1 µM; in that of `COCc1cc2c(Nc3cc([C@H]4C[C@@H](OC(=O)N5CC6CC(C6)C5)CO4)[nH]n3)nccn2n1` [Example 733], 0.1 to 0.25 µM; in that of `Cn1cc2ccnc(Nc3cc([C@H]4C[C@@H](OC(=O)NC5(C)CC5)CO4)[nH]n3)c2n1` [Example 734], 1 to 100 µM.

As for `CC1(NC(=O)O[C@H]2CO[C@@H](c3cc(Nc4nccc5nccn45)n[nH]3)C2)CC1` [Example 735], the IC50 was no more than 0.1 µM. In the case of `CC[C@H](C)NC(=O)O[C@H]1CO[C@@H](c2cc(Nc3ccc4c(n3)C(C)(C)NC4=O)n[nH]2)C1` [Example 736], the IC50 was no more than 0.1 µM.

With `CC1(NC(=O)O[C@H]2CO[C@@H](c3cc(Nc4ccnc5nc[nH]c45)n[nH]3)C2)CC1` [Example 737], the IC50 lay in the range of 0.1 to 0.25 µM. Regarding `CC1(NC(=O)O[C@H]2CO[C@@H](c3cc(Nc4ncnc5[nH]ccc45)n[nH]3)C2)CC1` [Example 738], the IC50 was 0.25 to 1 µM. As for `C[C@H](NC(=O)O[C@H]1CO[C@@H](c2cc(Nc3ccc4c(n3)C(C)(C)NC4=O)n[nH]2)C1)C1CC1` [Example 740], the IC50 was no more than 0.1 µM. Turning to `COCc1cc2c(Nc3cc([C@H]4C[C@@H](Oc5nncn5C5(C(F)(F)F)CC5)CO4)[nH]n3)nccn2n1` [Example 741], the IC50 was in the range of 0.1 to 0.25 µM.

On to `COCc1cc2c(Nc3cc([C@@H]4C[C@H](Oc5nncn5C(C)(C)C)CO4)[nH]n3)nccn2n1` [Example 742], for which the IC50 was no more than 0.1 µM. In the case of `Cn1cnc2c(Nc3cc([C@H]4C[C@@H](OC(=O)NC5(C)CC5)CO4)[nH]n3)nccc21` [Example 743] it was 1 to 100 µM; in that of `CC(C)c1nc(Nc2cc([C@H]3C[C@@H](OC(=O)NC4(C)CC4)CO3)[nH]n2)c2cc[nH]c2n1` [Example 744], 0.1 to 0.25 µM; in that of `Cn1cc2c(Nc3cc([C@H]4C[C@@H](OC(=O)NC5(C)CC5)CO4)[nH]n3)nccc2n1` [Example 745], 0.1 to 0.25 µM. In the case of `C[C@H](NC(=O)O[C@H]1CO[C@@H](c2cc(NC(=O)c3cc(COC(F)(F)F)nn3C)n[nH]2)C1)C1CC1` [Example 746] it was no more than 0.1 µM. The same measure for `Cn1ncc2c(Nc3cc([C@H]4C[C@@H](OC(=O)NC5(C)CC5)CO4)[nH]n3)nccc21` [Example 747]: 0.25 to 1 µM; for `CC1(NC(=O)O[C@H]2CO[C@@H](c3cc(Nc4ccnc5nccn45)n[nH]3)C2)CC1` [Example 748]: no more than 0.1 µM; for `CC(C)n1cnnc1O[C@H]1CO[C@@H](c2cc(Nc3nccc4nccn34)n[nH]2)C1` [Example 749]: 0.1 to 0.25 µM. Turning to `Cn1nc(COC(F)(F)F)cc1C(=O)Nc1cc([C@H]2C[C@@H](OC(=O)NC34CC(C3)C4)CO2)[nH]n1` [Example 750], the IC50 is no more than 0.1 µM. The same measure for `CC1(C)NC(=O)c2ccc(Nc3cc([C@H]4C[C@@H](OC(=O)NC56CC(C5)C6)CO4)[nH]n3)nc21` [Example 751]: no more than 0.1 µM.

With `COCc1cc2c(Nc3cc([C@H]4C[C@@H](OC(=O)N[C@H](C)C(F)F)CO4)[nH]n3)nccn2n1` [Example 752], the IC50 was no more than 0.1 µM. On to `Cn1nc(COC(F)F)cc1C(=O)Nc1cc([C@H]2C[C@@H](OC(=O)NC3(C)CC3)CO2)[nH]n1` [Example 753], for which the IC50 is no more than 0.1 µM. In the case of `CC1(NC(=O)O[C@H]2CO[C@@H](c3cc(Nc4nccn5nc(C6CC6)cc45)n[nH]3)C2)CC1` [Example 754] it was no more than 0.1 µM. For `CC1(NC(=O)O[C@H]2CO[C@@H](c3cc(Nc4ccn5c(Cl)nnc5n4)n[nH]3)C2)CC1` [Example 755], the IC50 lay in the range of 0.25 to 1 µM. In the case of `CN1CCc2c(ccnc2Nc2cc([C@H]3C[C@@H](OC(=O)NC4(C)CC4)CO3)[nH]n2)C1` [Example 758] it was 1 to 100 µM.
